What all share (type): cell-based
In assay [1] the target is T1, Kv1.1/1.3 S5-S6 chimeric channel (Homo sapiens, UniProt Q09470, A352P/E350D/E351D/E353T/H355G/S369T/Y379H).
T1 construct: expressed in transfected cells; host or cells: CHO-K1
Briefly: Whole-cell patch clamp, chimeric channel. The following applies: +30 mV, mean ± SD. The source says:
(§1) To investigate the structural determinants underlying the differential regulatory effects of MrVIII on Kv1 channels, we employed a chimeric channel strategy. Using Kv1.3 as the template, the S1-S2, S3-S4, and S5-S6 transmembrane helices and their respective linkers from Kv1.1 were inserted to generate chimeras, generating the Kv1.3/1.1 S1-S2, Kv1.3/1.1 S3-S4, and Kv1.3/1.1 S5-S6 chimeric channels. […] These findings indicate that the S3-S4 is the key determinant for the differential inhibition of Kv1.1 and Kv1.3 by MrVIII. To further validate this conclusion, we constructed a reverse chimeric channel using Kv1.1 as the template, inserting the corresponding regions from Kv1.3 into Kv1.1. […] This finding more directly illustrates the exchange of the channel's voltage-dependence phenotype in toxin inhibition by swapping this S3-S4 between Kv1.1 and Kv1.3. […] In addition to confirming the differential role of S3-S4 between Kv1.1 and Kv1.3, we also substituted the S3-S4 of Kv1.4 and Kv1.7 into Kv1.3 to analyze MrVIII's inhibition profile. […] The IC50 for Kv1.3/1.7 S3-S4 could not be fitted, and inhi%(495 ms) was only 23.1 ± 10.0% (Fig. S2, E and F). […]
(§2) CHO-K1 cells were selected for expressing Kv channels due to their lack of endogenous Kv channels, while HEK293 or ND7/23 cells were used for Nav and Cav channel expression. […] After 4 to 6 h transfection, cells were seeded onto poly-lysine–coated coverslips, and 24 to 36 h later, transfected cells were ready for patch-clamp analysis. […]
(§3) For Kv current recordings, the bath solution contained (in mM) the following: 140 NaCl, 5 KCl, 1 MgCl2, 2 CaCl2, 10 glucose, and 10 Hepes (pH 7.3, adjusted with NaOH), and the pipette solution contained (in mM) the following: 140 KCl, 2.5 MgCl2, 11 EGTA, and 10 Hepes (pH 7.3, adjusted with KOH). […] Whole cell conductance (G) at each depolarizing voltage (V) was determined using the equation: G = I/(V−Vrev), where I is the current amplitude, and Vrev is the reversal potential. […]
(In general: Patch clamp records ionic current or voltage across a cell membrane.)

The target of assay [2] is T2, Kv1.3/1.1 S5-S6 chimeric channel (Homo sapiens, UniProt P22001, D422E/D423E/G427H/H451Y/P424A/T425E/T441S).
T2 construct: expressed in transfected cells; host or cells: CHO-K1
Briefly: Whole-cell patch clamp, chimeric channel. Conditions: +30 mV, 500 ms, holding −80 mV, mean ± SD, n = 4-5, read-out: IC50, Kv1.3/1.1 S5-S6 current.
From the text: as §1, §2, §3

Assay [3] deals with T3, hKv1.1 (Homo sapiens, UniProt Q09470).
T3 construct: expressed in transfected cells; host or cells: CHO-K1
Briefly: Whole-cell patch clamp, Kv1.1 ionic current in CHO-K1 cells. The method, then: The cDNA of hKv1.1, hKv1.2, hKv1.3, rKv1.4, hKv1.5, mKv1.6, and hKv1.7 were subcloned into mammalian expression vectors pcDNA3.1 or pCMV-blank vectors, as well as other plasmids described previously ([35]). Channel mutants were generated by site-directed mutations. Briefly, the parental channel plasmid was amplified using a pair of oppositely directed primers harboring the designed mutation site, with KOD Fx (TOYOBO Co, Ltd). The resulting PCR mix was treated with FastDigest DpnI (Thermo Fisher Scientific) to remove the methylated template. Ten microliters of the digested product was then used to transform 100 μl E. coli DH5α competent cells. Transformants were randomly picked and sequenced to confirm the presence of the intended mutation.
CHO-K1 cells were selected for expressing Kv channels due to their lack of endogenous Kv channels, while HEK293 or ND7/23 cells were used for Nav and Cav channel expression. CHO-K1 cells were cultured in a Dulbecco's modified Eagle's medium/Ham's F-12 nutrient mixture (DMEM-F12) medium, and HEK293T and ND7/23 cells in DMEM medium, all supplemented with 10% fetal bovine serum and 1% penicillin-streptomycin (all from Gibco, Thermo Fisher Scientific, Inc) under standard conditions (37 °C, 5% CO2, and saturated humidity). These cell lines were purchased from Stem Cell Bank, Chinese Academy of Sciences. Channel plasmids were cotransfected with pEGFP-N1 (encoding GFP) into the respective cells using lipofectamine 2000, following the manufacturer's instructions (Invitrogen, Thermo Fisher Scientific, Inc.). Nav1.9-GFP plasmid was transfected into ND7/23 using the X-tremeGENE HP DNA Transfection Reagent (Roche). After 4 to 6 h transfection, cells were seeded onto poly-lysine–coated coverslips, and 24 to 36 h later, transfected cells were ready for patch-clamp analysis.
Patch clamp experiments were conducted using an electrophysiology platform comprising a MultiClamp 700B amplifier and an Axon Digidata 1550 AD/DA convertor (Axon Instruments). Data acquisition was performed with pClamp 10.5 software (Axon Instruments). All experiments were performed at room temperature.
For Kv current recordings, the bath solution contained (in mM) the following: 140 NaCl, 5 KCl, 1 MgCl2, 2 CaCl2, 10 glucose, and 10 Hepes (pH 7.3, adjusted with NaOH), and the pipette solution contained (in mM) the following: 140 KCl, 2.5 MgCl2, 11 EGTA, and 10 Hepes (pH 7.3, adjusted with KOH). Series resistance was maintained below 10 MΩ and compensated to 80%. […] Whole cell conductance (G) at each depolarizing voltage (V) was determined using the equation: G = I/(V−Vrev), where I is the current amplitude, and Vrev is the reversal potential. […] The steady-state fast inactivation of Kv1.3 was measured using a two-pulses protocol. […]

Structures are written as SMILES. Bridge positions count the residues as written; N and C are the ends. Peptide text beside a SMILES is read from it.

T3 sequence (Q09470 whole entry): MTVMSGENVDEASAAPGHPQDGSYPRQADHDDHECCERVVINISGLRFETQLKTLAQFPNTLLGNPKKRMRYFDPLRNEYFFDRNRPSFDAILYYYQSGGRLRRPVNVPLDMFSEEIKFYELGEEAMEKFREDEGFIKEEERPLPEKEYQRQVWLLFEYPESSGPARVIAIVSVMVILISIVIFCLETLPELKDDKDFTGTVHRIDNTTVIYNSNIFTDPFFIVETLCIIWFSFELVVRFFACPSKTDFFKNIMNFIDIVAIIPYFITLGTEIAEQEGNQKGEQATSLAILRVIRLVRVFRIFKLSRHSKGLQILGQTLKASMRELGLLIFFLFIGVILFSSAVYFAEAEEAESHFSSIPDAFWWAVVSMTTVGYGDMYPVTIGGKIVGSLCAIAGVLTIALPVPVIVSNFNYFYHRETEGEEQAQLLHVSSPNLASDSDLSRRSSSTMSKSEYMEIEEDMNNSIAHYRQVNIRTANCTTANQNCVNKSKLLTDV
T1 sequence (Q09470 whole entry E350D/E351D/A352P/E353T/H355G/S369T/Y379H): as the sequence (Q09470 whole entry) above, with E350D, E351D, A352P, E353T, H355G, S369T, Y379H counted along it
T2 sequence (P22001 whole entry D422E/D423E/P424A/T425E/G427H/T441S/H451Y): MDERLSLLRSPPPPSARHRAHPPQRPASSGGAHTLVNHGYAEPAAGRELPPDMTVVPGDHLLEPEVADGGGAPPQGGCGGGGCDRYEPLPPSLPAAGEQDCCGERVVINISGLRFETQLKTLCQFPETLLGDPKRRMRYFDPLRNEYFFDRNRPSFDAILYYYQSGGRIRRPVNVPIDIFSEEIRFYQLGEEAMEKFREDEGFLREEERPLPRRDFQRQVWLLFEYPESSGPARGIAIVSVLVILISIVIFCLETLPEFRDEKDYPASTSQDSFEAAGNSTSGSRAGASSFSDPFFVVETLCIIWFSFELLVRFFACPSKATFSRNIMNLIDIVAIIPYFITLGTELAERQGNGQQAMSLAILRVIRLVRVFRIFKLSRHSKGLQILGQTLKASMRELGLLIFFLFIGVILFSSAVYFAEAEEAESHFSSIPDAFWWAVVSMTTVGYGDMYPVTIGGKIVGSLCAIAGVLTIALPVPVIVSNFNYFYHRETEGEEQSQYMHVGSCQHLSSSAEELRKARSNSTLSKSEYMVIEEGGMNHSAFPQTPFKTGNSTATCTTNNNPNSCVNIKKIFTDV

As a reminder, the inhibition is the drop in the measured response relative to a control, in per cent. For the molecule `CC[C@H](C)[C@@H]1NC(=O)[C@H](Cc2ccc(O)cc2)NC(=O)[C@H](CCC(N)=O)NC(=O)[C@@H]2CCCN2C(=O)[C@@H]2CSSC[C@H](NC(=O)[C@H](C)NC(=O)[C@H](CO)NC(=O)[C@H](CCC(=O)O)NC(=O)[C@H](CCC(=O)O)NC(=O)[C@@H](N)[C@@H](C)O)C(=O)NCC(=O)NCC(=O)N[C@@H](Cc3ccccc3)C(=O)N[C@@H](CC(N)=O)C(=O)N[C@@H](C)C(=O)N[C@@H](CCCNC(=N)N)C(=O)N[C@H]3CSSC[C@H](NC1=O)C(=O)N[C@@H](CCCCN)C(=O)NCC(=O)N[C@@H](Cc1c[nH]c4ccccc14)C(=O)N[C@@H](CCCNC(=N)N)C(=O)N[C@@H]([C@@H](C)O)C(=O)N[C@@H](CCCCN)C(=O)N[C@@H](CCCNC(=N)N)C(=O)N[C@H](C(=O)N[C@@H](CC(C)C)C(=O)N[C@@H](CC(N)=O)C(=O)N1CCC[C@H]1C(=O)O)CSSC[C@H](NC(=O)[C@H](CCCCN)NC(=O)[C@H](Cc1c[nH]cn1)NC(=O)[C@H](CC(C)C)NC(=O)[C@@H]1CCCN1C3=O)C(=O)N2` [MrVIII] (H-TEESACGGFNARCPLHKCCPQYICKGWRTKRCLNP-OH; disulfide 6-19, 13-24, 18-32; N-terminus and C-terminus assumed), the IC50 is 48.9 ± 26.6 nM in assay [1] (current at 50 ms, n = 4-5); 3 ± 0.9 nM in assay [2]; 50.9 ± 21.7 nM in assay [3] (current measured at 50 ms of a 500 ms depolarization to +30 mV, mean ± SD, n = 4–7, SD). Further, the “inhi%(495 ms), Kv1.1/1.3 S5-S6 current” value in assay [1] (current at 495 ms) was determined as 50.1 ± 19.9%. For the same molecule, in assay [3] (10 μM (saturating), current at 495 ms, +30 mV, mean ± SD, SD), the “inhi%(495 ms), Kv1.1 current” value was found to be 23.9 ± 18.5%. The “inhibitory effect on Kv1.1 current at 495 ms once depolarizing voltage exceeded +40 mV” value in assay [3] (10 μM MrVIII, I-V protocol) was “negligible”. The inhibition at 10 µM in assay [3] (CHO-K1, 10 μM MrVIII, I-V protocol, holding −80 mV, mean ± SD, n = 5–7, SD, read-out: inhibition of Kv1.1 current at 50 ms at +100 mV) is 11.6 ± 7.9%.

Source of the values: PMC11984586, “A novel spider toxin as a selective antagonist of the Kv1 subfamily of voltage-gated potassium channels through gating modulation” (The Journal of Biological Chemistry, 2025).
